The results in this text go back to US8088822B2, “Use of fenretinide or bioactive derivatives thereof and pharmaceutical compositions comprising the same” (priority 2008, dated 2012).

One test deals with XBP-1. The experiment in a line: RT-PCR of ER stress marker XBP-1 splicing in K562 cells. The format is cell-based. The note with it: whole time courses. The text has this: Real-time quantitative RT-PCR was preformed on ABI7900 thermocycler detection system using SYBR Green I (Applied Biosystems, Foster City, Calif.).
Despite of tremendous efforts (Oridate et al., 1997), mechanisms underlying fenretinide-induced apoptosis are far from clear. In particular, knowledge in terms of how oxidative stress is converted into downstream activities in fenretinide-treated cancer cells is limited. We performed a comprehensive analysis of fenretinide-induced apoptosis in leukemia cell lines through microarray technology integrated robust data mining tool, and techniques of molecular biology. Transcriptome analysis of fenretinide-induced apoptosis in NB4 cells highlighted numerous stress-responsive events at the temporal-spatial level, typifying a process of oxidative stress-mediated apoptosis. Among these prominent events were genes involved in transcriptional regulation, ribosome machinery, oxidative stress, endoplasmic reticulum stress/unfolded protein response (UPR), ubiquitin-proteasome system and apoptosis (FIG. 7A). […] Recently, data have shown that fenretinide may perturb cellular homeostasis and induced ER stress, which may eventually contribute to apoptosis. ER stress is cellular defense mechanism responding to various stimuli including oxidative stressors. […]

Test [1] relates to K562, HL60 and NB4 leukemia cell lines. The test can be described thus: Apoptosis versus intracellular ROS level in leukemia cell lines. The test is classed as cell-based. The note with it: series of concentrations. The protocol: (§1) 2×10^5 cultured cells were used for evaluating apoptosis using an ApoAlert Annexin V-FITC Apoptosis Kit (BD Biosciences). Cells were washed once by PBS, resuspended in 200 μl Annexin-V binding buffer, and then stained with Annexin V-FITC 5 μl, PI 10 μl for 15 min at room temperature in the dark. Cells were subsequently analyzed by flow cytometry.
The intracellular generation of reactive oxygen species (ROS) was measured using of the oxidation-sensitive fluorescent dye 2,7-dichlorofluorescin diacetate (DCFH-DA) (Molecular Probes). After 3 h exposure of fenretinide, 2×10^5 cells were harvested and washed once with PBS, then loaded with 1 ml PBS containing 10 μM of DCFH-DA. The cells were then incubated at 37° C. for 30 min and the fluorescence intensity was measured at 530 nm.
Fenretinide induces ROS-dependent apoptosis is the common feature in a variety of tumors (Sun et al., 1999). Here, we extensively explored the relationship between intracellular ROS levels and apoptosis outcomes induced by fenretinide in a panel of leukemia cell lines, including K562, HL60 and NB4. The intracellular ROS levels in leukemic cells were evaluated by DCFH-DA staining, and apoptosis of leukemic cells induced by fenretinide treatment with a series of concentrations was examined through annexin-V FITC and 7AAD double staining.

A further test relates to U937. The test can be described thus: Apoptosis in AML cell line U937. The format is cell-based. The note with it: U937, within 48 hours, alone or combined. How it is done: as §1
There are two observations that drive us in further exploring alternative therapeutic combinations. As illustrated in Example 6, proteasome inhibitors can potentate fenretinide-induced apoptosis in leukemia. […] The apoptosis rates were quite low when treated alone within 48 hours (nearly 5%), and the number doubled when treated by fenretinide and MG132.

In the next test the test system is CML mononuclear cells. The experiment in a line: Apoptosis of CML mononuclear cells. The note with it: CML patient specimens. The format is cell-based, human. The text has this:
Fresh bone marrow (BM) cells were obtained from 38 patients with CML and 5 non-leukemic donors, 25 AML, 17 ALL, and 8 normal specimens with informed consent according to the Declaration of Helsinki. Approval was obtained from Institutional Review Board at the School of Medicine in Shanghai Jiao Tong University. BM mononuclear cells were isolated by Ficoll density gradient centrifugation (Shanghai Second Reagent Factory, Shanghai, China). CD34^+ Cell were selected using EasySep® Human CD34 Positive Selection kit (Stem Cell Technologies, Vancouver, BC, Canada) according to the manufacturer's instructions. The purity of CD34 cells ranged between 92 and 98% in all samples detennined by flow cytometry. The CD34^+ cells were cultured in a serum-free medium (StemPro 34; Gibco BRL, Gaithersburg, Md.) supplemented with growth factors (PeproTech, London, United Kingdom) (20). The growth factors consisted of GM-CSF (200 pg/mL), G-CSF (1 ng/mL); SCF (200 pg/mL); LIF (50 pg/mL), MIP-1α (200 pg/mL) and IL-6 (1 ng/mL).
Primitive AML and CML subpopulations (CD34^+ cells) were identified using CD34-PE in combination with CD38-APC, and followed by double-labeling with 7AAD and Annexin V antibodies for apoptosis assessment. […] Subsequently, the samples were incubated at room temperature for 15 minutes and analyzed by flow cytometry. […]

As to `CC1=C(/C=C/C(C)=C/C=C/C(C)=C/C(=O)Nc2ccc(O)cc2)C(C)(C)CCC1` [fenretinide, N-(4-hydroxyphenyl)retinamide], the “splicing of the XBP-1 gene” value in the test with XBP-1 is listed as “observable”. The “susceptibility to fenretinide-induced apoptosis versus level of intracellular ROS” value in test [1] was “positively correlated”. In addition, in the test with U937, the apoptosis rate is about 5%. The “apoptosis in mononuclear cells” value with CML mononuclear cells is on record as “little apoptosis”.
